Patent publication US20160251367A1, “SYNTHESIS OF TRITOQUALINE SALTS” (Chrysalis Pharma, priority 2014, published 2016)
Values after ≈ are worked out from the molar mass of the structure shown. Like-named read-outs stand apart in the source and are kept apart here.

Test: physchem
Type: physicochemical
Source text: The dissolution tests show a very substantial and surprising increase in tritoqualine.

Row | increase of the initial solubility of tritoqualine in water | solubility (water) [µM] | solubility [M/L] | Compound
1 | 31 000 times | – | – | CCOc1c(N)c2c(c(OCC)c1OCC)C(C1c3c(cc4c(c3OC)OCO4)CCN1C)OC2=O.O=P(O)(O)O (centres unmarked) [Tritoqualine phosphate, tritoqualine phosphate]
2 | 50 000 times | – | – | CCOc1c(N)c2c(c(OCC)c1OCC)C(C1c3c(cc4c(c3OC)OCO4)CCN1C)OC2=O.CS(=O)(=O)O (centres unmarked) [Tritoqualine methylsulfonate, tritoqualine methylsulfonate]
3 | 15 000 times | – | – | CCOc1c(N)c2c(c(OCC)c1OCC)C(C1c3c(cc4c(c3OC)OCO4)CCN1C)OC2=O.O=C(O)C=CC(=O)O (centres unmarked) [Tritoqualine fumarate, tritoqualine fumarate]
4 | – | 500 (≈ 250 µg/mL) | – | CCOc1c(N)c2c(c(OCC)c1OCC)C(C1c3c(cc4c(c3OC)OCO4)CCN1C)OC2=O (racemic) [tritoqualine, 7-Amino-4,5,6-triethoxy-3-(5,6,7,8-tetrahydro-4-methoxy-6-methyl-1,3-dioxolo[4,5-g]isoquinolin-5-yl) phthalide]
5 | 2500 times | – | 1.25 | tritoqualine sulfate

More lines, now with the values behind:

Row | Compound | increase of the initial solubility of tritoqualine in water | solubility (water) [µM] | solubility [M/L]
6 | CC1(C)C2CCC1(CS(=O)(=O)O)C(=O)C2.CCOc1c(N)c2c(c(OCC)c1OCC)C(C1c3c(cc4c(c3OC)OCO4)CCN1C)OC2=O (centres unmarked) [Tritoqualine camphorsulfonate, tritoqualine camphorsulfonate] | 11 000 times | – | –
7 | CC(=O)O.CCOc1c(N)c2c(c(OCC)c1OCC)C(C1c3c(cc4c(c3OC)OCO4)CCN1C)OC2=O (centres unmarked) [Tritoqualine acetate, tritoqualine acetate] | 1500 times | – | 0.75
8 | CCOc1c(N)c2c(c(OCC)c1OCC)C(C1c3c(cc4c(c3OC)OCO4)CCN1C)OC2=O.Cl (centres unmarked) [Tritoqualine hydrochloride, tritoqualine hydrochloride] | 500 times | – | 0.25
